# Data as given in patent publication US20220087983A1, “ACTIVATING PYRUVATE KINASE R” (FORMA Therapeutics, Inc., priority 2020, published 2022).
# Assays:
# [1] = Preclinical safety: arrhythmia risk, mutagenicity, panels of receptors, enzymes, ion channels and kinases in vitro
# [2] = tested on: H295R adreno-cortical carcinoma cell line; assay: Steroid modulation screen in vitro; assay type: cell-based; settings: tested 200 to 0.0002 μM; only at the top concentration
# Protocol: (§1) To assess potential effects on steroidogenesis, Compound 1 was screened for steroid modulation in vitro using the H295R adreno-cortical carcinoma cell line (at 200 to 0.0002 μM) and in an assay to monitor cell viability (MTT Kit). Compound 1 indicated steroid modulation potential (% over vehicle) only at 200 μM, the top concentration tested, with 100% cellular viability at concentrations≤20 μM (90% viability at 200 μM).
# ATP blood levels = assay: Phase 1: blood ATP levels in healthy volunteers (LC-MS/MS); assay type: in vivo, human; settings: for Mean maximum percent change from baseline in ATP: all doses and timepoints
# Protocol: In this study, SAD/MAD cohorts are randomized (3 to 1) to receive Compound 1 or placebo (P). Compound 1 was evaluated first in 4 healthy SAD cohorts and 4 healthy MAD (14-day dosing period) cohorts. Based on the safety, and PK/PD profile from HS, Compound 1 is then evaluated in 1 SCD SAD cohort and 2 SCD MAD cohorts. Specifically, based on the safety and pharmacokinetic/pharmacodynamics (PK/PD) profile in healthy volunteer studies, Compound 1 is evaluated in patients (pts) with SCD, first in a single dose (SD or SAD) cohort and then in multiple-dose (MD or MAD) cohorts (14-day and 12-week). Safety assessments include AEs, vital signs, ECGs and laboratory parameters. PK/PD blood sampling was performed on Day 1 (SAD/MAD) and Day 14 (MAD) and up to 72 h after the last dose and at the end-of-study visit. PD parameters included 2,3-DPG, ATP, and p50 in all cohorts with additional PD studies (including oxygen scan) performed only in the SCD cohorts. PD parameters included 2,3-DPG, ATP, p50, RBC deformability with controlled deoxygenation and reoxygenation (Lorrca® oxygen scan) and varying osmolality (Lorrca® osmoscan)). To maintain study blind, pt identifiers were removed when needed.
# In the MAD cohorts, the subjects' blood ATP levels were measured […] by a qualified LC-MS/MS method for the quantitation of ATP in blood. […] Table 20A reports the median percentage change in blood ATP levels, relative to baseline, measured over time after the first dose on days 1 and 14 in healthy volunteers who received daily doses of Compound 1 (100 mg BID, 200 mg BID, 300 mg BID, or 400 mg QD) or placebo for 14 days. Table 20B reports the mean percentage change in ATP blood levels, relative to baseline, measured over time after the first dose on days 1 and 14 in healthy volunteers who received daily doses of Compound 1 (100 mg BID, 200 mg BID, 300 mg BID, or 400 mg QD) for 14 days.
# The following procedures are employed for the analysis of ATP and 2,3-DPG in human whole blood K2EDTA using a protein precipitation extraction procedure and analysis by LC-MS/MS. […]
# [3] = Phase 1: hematologic and hemolytic parameters in SCD patients; assay type: in vivo, human; settings: single 700 mg dose, 24 h
# [4] = Solubility in water or buffered solutions; assay type: physicochemical; settings: aqueous buffer, pH about 1.07 to about 8.69
# PKR(G332S) = PKR(G332S) (Homo sapiens, UniProt P30613, G332S); assay: Luminescence Assay (Kinase Glo Plus) of PKR activation; assay type: biochemical; settings: G332S variant; Luminescence Assay of Example 2
# Chain of PKR(G332S) (P30613 whole entry G332S): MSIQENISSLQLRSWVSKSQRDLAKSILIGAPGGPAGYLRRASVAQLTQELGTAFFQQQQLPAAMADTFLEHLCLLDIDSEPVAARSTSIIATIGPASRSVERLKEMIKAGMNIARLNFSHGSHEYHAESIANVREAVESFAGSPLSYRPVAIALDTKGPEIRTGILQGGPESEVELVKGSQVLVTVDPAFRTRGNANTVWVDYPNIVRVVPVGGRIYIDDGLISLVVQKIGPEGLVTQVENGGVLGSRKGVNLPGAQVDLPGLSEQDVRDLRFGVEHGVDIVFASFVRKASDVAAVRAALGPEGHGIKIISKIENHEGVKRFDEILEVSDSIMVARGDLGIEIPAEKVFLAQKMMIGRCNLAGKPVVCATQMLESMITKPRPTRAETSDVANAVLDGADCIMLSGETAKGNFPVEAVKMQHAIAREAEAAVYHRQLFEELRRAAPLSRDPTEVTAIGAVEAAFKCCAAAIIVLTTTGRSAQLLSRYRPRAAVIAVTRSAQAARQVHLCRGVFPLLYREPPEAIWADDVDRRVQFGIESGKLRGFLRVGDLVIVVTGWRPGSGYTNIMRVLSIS
# Protocol: PKR Activating Compounds can be identified with the biochemical Luminescence Assay of Example 2. The PKR activating activity of a series of chemical compounds was evaluated using the Luminescence Assay below, including compounds designated Compound 1, and Compound 2, or mixtures thereof.
# For each tested compound, the ability to activate PKR was determined using the following Luminescence Assay. The effect of phosphorylation of adenosine-5′-diphosphate (ADP) by PKR is determined by the Kinase Glo Plus Assay (Promega) in the presence or absence of FBP (D-fructose-1,6-diphosphate; BOC Sciences, CAS: 81028-91-3) as follows. Unless otherwise indicated, all reagents are purchased from Sigma-Aldrich. All reagents are prepared in buffer containing 50 mM Tris-HCl, 100 mM KCl, 5 mM MgCl2, and 0.01% Triton X100, 0.03% BSA, and 1 mM DTT. Enzyme and PEP (phosphoenolpyruvate) are added at 2× to all wells of an assay-ready plate containing serial dilutions of test compounds or DMSO vehicle. Final enzyme concentrations for PKR(wt), PKR(R510Q), and PKR(G332S) are 0.8 nM, 0.8 nM, and 10 nM respectively. Final PEP concentration is 100 μM. The Enzyme/PEP mixture is incubated with compounds for 30 minutes at RT before the assay is initiated with the addition of 2×ADP and KinaseGloPlus. Final concentration of ADP is 100 μM. […] For assays containing FBP, that reagent is added at 30 μM upon reaction initiation. Reactions are allowed to progress for 45 minutes at RT until luminescence is recorded by the BMG PHERAstar FS Multilabel Reader. The compound is tested in triplicate at concentrations ranging from 42.5 μM to 2.2 nM in 0.83% DMSO. AC50 measurements were obtained by the standard four parameter fit algorithm of ActivityBase XE Runner (max, min, slope and AC50). The AC50 value for a compound is the concentration (μM) at which the activity along the four parameter logistic curve fit is halfway between minimum and maximum activity.
# As set forth in Table 2 below, AC50 values are defined as follows: ≤0.1 μM (+++); >0.1 μM and ≤1.0 μM (++); >1.0 μM and ≤40 μM (+); >40 μM (0).
# [5] = tested on: H295R adreno-cortical carcinoma cell line; assay: Cell viability (MTT Kit); assay type: cell-based; settings: at 200 μM
# Protocol: as §1
smiles,measurement,setting,value
"O=C([C@H](CO)c1ccccc1)N1CC2=C(C1)CN(S(=O)(=O)c1cnc3c(c1)OCCO3)C2 (single isomer, unassigned) [Compound 1]","preclinical evidence of arrhythmia risk, mutagenicity, or nonspecific binding activity",[1],"has not demonstrated any preclinical evidence of arrhythmia risk, mutagenicity, or nonspecific binding activity"
same,concentration at which steroid modulation potential (% over vehicle) was indicated,[2],200 µM
same,Mean maximum percent change from baseline in ATP,"ATP blood levels; HV MAD, N = 36",68.5%
same,Mean maximum percent change from baseline in ATP,"ATP blood levels; HV SAD, N = 24",24.4%
same,lag of maximum ATP increase behind maximum plasma concentration,"ATP blood levels; HV, single 200-1000 mg dose",at least 24 hours
same,mean Hb difference versus placebo,[3],~0.9 g/dL
same,solubility,[4],22 to 25 µg/mL
same,AC50,PKR(G332S),< 1000 nM
same,cellular viability,[5],90%
